From PMC6459958, “NEP-TC a rRNA Methyltransferase Involved on Somatic Embryogenesis of Tamarillo (Solanum betaceum Cav.)” (Frontiers in Plant Science, 2019)

Molecular target: NEP-TC (Solanum betaceum, UniProt I1W0V3)
Test: coupled colorimetric SAM methyltransferase assay (SAH production, […] nm)
Format: biochemical
Conditions: methyl donor; co-substrate rRNA or total RNA from non-embryogenic calli

Chain of NEP-TC (I1W0V3 1-221): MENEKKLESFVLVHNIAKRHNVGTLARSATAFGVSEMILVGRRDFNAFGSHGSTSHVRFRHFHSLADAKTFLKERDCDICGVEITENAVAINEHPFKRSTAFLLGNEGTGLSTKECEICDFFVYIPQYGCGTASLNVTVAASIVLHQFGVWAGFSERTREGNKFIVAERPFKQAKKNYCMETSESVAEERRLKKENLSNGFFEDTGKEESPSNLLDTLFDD

C[S+](CC[C@H](N)C(=O)O)C[C@H]1O[C@@H](n2cnc3c(N)ncnc32)[C@H](O)[C@@H]1O (stereo partly shown) [SAM]
coupled colorimetric SAM methyltransferase assay (SAH production, 510 nm): production of SAH in SAM-dependent methylation reactions
